Data from patent US12478569B2, “Compositions methods and device for enhancing dental care based on dead sea salt and cannabinoid or extract of cannabis plant” (CANNIBITE BVBA, priority 2019, dated 2025).

What was measured:
Format in all cases: cell-based
[1] = test system: gingival plaque; test: Cannabinoid effects on gingival plaque in vitro in subjects with gum disease (FIG. 2)
Method: FIG. 2A-2F illustrate the effects of selected cannabinoids on gingival plaque in various individuals. Samples of gingival plaque were obtained from individuals A-F with various degrees of gum disease, samples were plated in the presence of various cannabinoids, cannabinoid formulations or essential oils, and cultured as above (samples A-F correspond to plates 1-6).
The effects of cannabinoids on gum disease was further investigated in a series of subjects with various degrees of gingivitis (an earliest and mildest form) or periodontitis (full-fledged gum disease), the severity of gum disease was further evaluated using Dutch Periodontal Screening Index (DPSI).
Samples of gingival plaque were obtained from 6 subjects (A-F) with various degrees of gum disease, samples were plated and cultured for 2 days at 37° C. in the presence of various cannabinoids and cannabinoid combinations.

[2] = test system: dental biofilm/plaque; test: Preliminary case study: dental biofilm/plaque sample plated and cultured in the presence of cannabinoids (FIG. 1); conditions: dental plaque sample cultured for 2 days at 37° C.
Method: FIG. 1 illustrates a case study on the antimicrobial effect of cannabinoids on dental plaque. A sample of dental plaque was plated in the presence CBD or CBG and a reference antimicrobial agent (chlorhexidine gluconate, CHG), and cultured for 2 days at 37° C. The resulting bacterial colonies are shown.
A sample of dental biofilm/plaque was obtained, plated and cultured for 2 days at 37° C. in the presence of two types of cannabinoids, CBD and CBG, and Chlorhexidine (CHG) as a reference antimicrobial agent.

[3] = test system: dental flora (plaque); test: Cannabinoid sensitivity tests in vitro on dental flora (plaque) of 10 subjects; design: key to suppression of bacterial flora (score): Increasing scores (+) indicate an increased suppression of bacterial flora; conditions: for suppression of bacterial flora (score): dental flora in vitro
Method: Subsequently, in a more extended in vitro trial the effectiveness of cannabinoids was determined in 10 subjects (A-J). Samples of dental flora (plaque) were collected by swabs, scrapes, and were tested on the following panel of cannabinoids and cannabinoid combinations: • 1=CBD • 2=CBD+CBN • 3=CBD+CBN+CBG • 4=CBD+CBN+CBG+CBC • 5=CBD+CBN+CBG+CBC+CBGA • 6=CHG reference antimicrobial agent • 7=control with no antiseptic or antimicrobial agent.
Bacterial sensitivity was determined by conventional methods, e.g., growth on selective media, microscopic fluorescence examination.

[4] = subject A, moderate gingivitis, DPSI score 1, 2 days at 37° C.
[5] = subject C, periodontitis, DPSI score −3, 2 days at 37° C.
[6] = subject D, moderate gingivitis, DPSI score 2, 2 days at 37° C.
[7] = subject E, advanced periodontitis, DPSI score +3, 2 days at 37° C.
[8] = subject F, moderate gingivitis, DPSI score 1, 2 days at 37° C.

Structure (SMILES) | Relative effectiveness [1, 4] | Relative effectiveness [1, 5] | Relative effectiveness [1, 6] | Relative effectiveness [1, 7] | Relative effectiveness [1, 8] | bacterial growth in the saturated zone [2] | other results
CCCCCc1cc(O)c2c(c1)OC(C)(CCC=C(C)C)C=C2 (stereo not drawn) [CBC, Cannabichromene] | CBG > CBGA > CBN ≈ CBC | CBC > CBG > CBD > CBN | CBGA > CBC > CBG ≈ CBN | CBG ≈ CBGA > CBC > CBD | CBC > CBG ≈ CBGA ≈ CBD |  | 
C=C(C)[C@@H]1CCC(C)=C[C@H]1c1c(O)cc(CCCCC)cc1O [CBD, Cannabidiol] |  | CBC > CBG > CBD > CBN |  | CBG ≈ CBGA > CBC > CBD | CBC > CBG ≈ CBGA ≈ CBD | no growth | effectiveness on suppression of dental flora in vitro ([3]; in many individuals): sufficiently effective; most effective panel of cannabinoids ([3]; patient B): most effective; Relative effectiveness ([1]; subject B, no gingivitis and no pathology, DPSI score 0, 2 days at 37° C.): POM ≈ POM form. ≈ CBD > CBD form.
CCCCCc1cc(O)c(C/C=C(\C)CCC=C(C)C)c(O)c1 [CBG, Cannabigerol] | CBG > CBGA > CBN ≈ CBC | CBC > CBG > CBD > CBN | CBGA > CBC > CBG ≈ CBN | CBG ≈ CBGA > CBC > CBD | CBC > CBG ≈ CBGA ≈ CBD | lesser bacterial growth | 
CCCCCc1cc(O)c(C/C=C(\C)CCC=C(C)C)c(O)c1C(=O)O [CBGA, Cannabigerolic acid] | CBG > CBGA > CBN ≈ CBC |  | CBGA > CBC > CBG ≈ CBN | CBG ≈ CBGA > CBC > CBD | CBC > CBG ≈ CBGA ≈ CBD |  | 
CCCCCc1cc(O)c2c(c1)OC(C)(C)c1ccc(C)cc1-2 [CBN, Cannabinol] | CBG > CBGA > CBN ≈ CBC | CBC > CBG > CBD > CBN | CBGA > CBC > CBG ≈ CBN |  |  |  | 
N=C(NCCCCCCNC(=N)NC(=N)Nc1ccc(Cl)cc1)NC(=N)Nc1ccc(Cl)cc1.O=C(O)[C@H](O)[C@@H](O)[C@H](O)[C@H](O)CO.O=C(O)[C@H](O)[C@@H](O)[C@H](O)[C@H](O)CO [CHG, chlorhexidine gluconate] |  |  |  |  |  | lesser bacterial growth | suppression of bacterial flora (score) ([3]; subject A): + +; suppression of bacterial flora (score) ([3]; subject B): + +; suppression of bacterial flora (score) ([3]; subject C): +; suppression of bacterial flora (score) ([3]; subject D): + +; suppression of bacterial flora (score) ([3]; subject E): − −; suppression of bacterial flora (score) ([3]; subject F): − −; suppression of bacterial flora (score) ([3]; subject G): + + +; suppression of bacterial flora (score) ([3]; subject H): +; suppression of bacterial flora (score) ([3]; subject I): + +; suppression of bacterial flora (score) ([3]; subject J): − −
